Results published in ChEMBL document CHEMBL5344412, “Dual degradation mechanism of GPX4 degrader in induction of ferroptosis exerting anti-resistant tumor effect” (Eur J Med Chem, 2023).
Activity calls are given as the source filed them. The rule behind the calls is not given here.

How the values were obtained:
[1] = tested on: Calu-1; assay: Antiproliferative activity against human Calu-1 cells assessed as inhibition of cell growth incubated for 24 hrs by MTT assay; format: functional, cell-based; settings: Calu-1, 24 h
[2] = biological target: T1, Phospholipid hydroperoxide glutathione peroxidase GPX4 (Homo sapiens) (UniProt P36969); assay: Induction of GPX4 degradation in human HT-1080 cells at 100 nM incubated for 6 hrs relative to control; format: cell-based
T1 sequence (whole entry): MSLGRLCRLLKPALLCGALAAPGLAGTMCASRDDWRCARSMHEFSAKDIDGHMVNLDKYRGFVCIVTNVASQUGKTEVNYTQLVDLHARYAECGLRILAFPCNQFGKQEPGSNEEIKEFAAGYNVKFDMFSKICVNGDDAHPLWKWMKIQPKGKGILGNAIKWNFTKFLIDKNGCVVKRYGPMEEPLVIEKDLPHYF

[3] = biological target: T1, Phospholipid hydroperoxide glutathione peroxidase GPX4 (Homo sapiens); assay: Induction of GPX4 degradation in human HT-1080 cells at 0.1 uM measured for 1 hr by Western blot analysis; format: cell-based
[4] = biological target: T1, Phospholipid hydroperoxide glutathione peroxidase GPX4 (Homo sapiens); assay: Induction of GPX4 degradation in human Calu-1 cells at 0.3 uM measured for 8 hrs by Western blot analysis; format: cell-based
[5] = tested on: HT-1080; assay: Induction of ferroptosis in human HT-1080 cells assessed as increase in cell survival at 0.1 uM incubated for 24 hrs in presence of 0.556 uM of liproxstatin-1 by MTT assay; format: functional
[6] = biological target: T1, Phospholipid hydroperoxide glutathione peroxidase GPX4 (Homo sapiens); assay: Induction of GPX4 degradation in human HT-1080 cells at 0.1 uM incubated for 24 hrs in presence of 20 uM of liproxstatin-1 by Western blot analysis; format: cell-based
[7] = biological target: T1, Phospholipid hydroperoxide glutathione peroxidase GPX4 (Homo sapiens); assay: (§1) Induction of GPX4 degradation in human HT-1080 cells measured for 6 hrs by Western blot analysis; format: cell-based; settings: dose 0.3-1000 nM
[8] = biological target: T2, Phospholipid hydroperoxide glutathione peroxidase GPX4 (Homo sapiens, UniProt P36969); assay: as §1; format: cell-based
T2 sequence (P36969 whole entry): T1 sequence (whole entry)

[9] = biological target: T1, Phospholipid hydroperoxide glutathione peroxidase GPX4 (Homo sapiens); assay: Induction of GPX4 degradation in human HT-1080 cells at 0.1 uM by Western blot analysis; format: cell-based
[10] = tested on: NCI-H1650; assay: Antiproliferative activity against human NCI-H1650 cells assessed as inhibition of cell growth incubated for 24 hrs by MTT assay; format: functional, cell-based; settings: NCI-H1650, 24 h
[11] = tested on: HT-1080; assay: Induction of ferroptosis in human HT-1080 cells assessed as increase in cell survival at 0.1 uM incubated for 24 hrs in presence of 0.006 uM of liproxstatin-1 by MTT assay; format: functional
[12] = tested on: HT-1080; assay: Induction of ferroptosis in human HT-1080 cells assessed as increase in cell survival at 0.1 uM incubated for 24 hrs in presence of 0.020 uM of liproxstatin-1 by MTT assay; format: functional
[13] = biological target: T1, Phospholipid hydroperoxide glutathione peroxidase GPX4 (Homo sapiens); assay: Induction of GPX4 degradation in human HT-1080 cells at 0.1 uM incubated for 6 hrs in presence of PYR41 by Western blot analysis; format: cell-based
[14] = biological target: T1, Phospholipid hydroperoxide glutathione peroxidase GPX4 (Homo sapiens); assay: Induction of GPX4 degradation in human HT-1080 cells at 0.1 uM incubated for 24 hrs in presence of ZVF by Western blot analysis; format: cell-based
[15] = biological target: T1, Phospholipid hydroperoxide glutathione peroxidase GPX4 (Homo sapiens); assay: Induction of GPX4 degradation in human Calu-1 cells at 0.3 uM measured for 4 hrs by Western blot analysis; format: cell-based
[16] = biological target: T1, Phospholipid hydroperoxide glutathione peroxidase GPX4 (Homo sapiens); assay: Induction of GPX4 degradation in human HT-1080 cells at 0.1 uM incubated for 24 hrs in presence of Baf-A1 by Western blot analysis; format: cell-based
[17] = Antiproliferative activity against human Gefitinib-resistant H1650 cell assessed as inhibition of cell growth incubated for 24 hrs by MTT assay; format: functional, cell-based
[18] = biological target: T1, Phospholipid hydroperoxide glutathione peroxidase GPX4 (Homo sapiens); assay: (§2) Induction of GPX4 degradation in human NCI-H1650 cells incubated for 24 hrs by Western blot analysis; format: cell-based; settings: dose 10-1000 nM
[19] = biological target: T2, Phospholipid hydroperoxide glutathione peroxidase GPX4; assay: as §2; format: cell-based
[20] = biological target: T1, Phospholipid hydroperoxide glutathione peroxidase GPX4 (Homo sapiens); assay: Induction of GPX4 degradation in human HT-1080 cells at 0.1 uM measured for 6 hrs by Western blot analysis; format: cell-based
[21] = Toxicity in Balb/c nude mouse xenografted with human HT-1080 cells assessed as change in body weight at 200 mg/kg, sc measured for 16 days; format: organism-based; settings: in vivo, 384 h, time 16 day
[22] = tested on: HT-1080; assay: Induction of ROS production in human HT-1080 cells assessed as increase in ROS positive cells at 0.1 uM preincubated with liproxstatin-1 for 2 hrs followed by compound addition and measured after for 7 hrs by C11-BODIPY581/891 staining based flow cytometry analysis; format: functional, cell-based
[23] = tested on: HT-1080; assay: Induction of ferroptosis in human HT-1080 cells assessed as increase in cell survival at 0.1 uM incubated for 24 hrs in presence of 0.061 uM of liproxstatin-1 by MTT assay; format: functional
[24] = biological target: T1, Phospholipid hydroperoxide glutathione peroxidase GPX4 (Homo sapiens); assay: Induction of GPX4 degradation in human NCI-H1650 cells at 0.3 uM incubated for 24 hrs by Western blot analysis; format: cell-based
[25] = biological target: T1, Phospholipid hydroperoxide glutathione peroxidase GPX4 (Homo sapiens); assay: Induction of GPX4 degradation in human HT-1080 cells at 0.1 uM incubated for 24 hrs in presence of Nec-1 by Western blot analysis; format: cell-based
[26] = tested on: HT-1080; assay: Induction of ferroptosis in human HT-1080 cells assessed as increase in cell survival at 0.1 uM incubated for 24 hrs in presence of 1.670 uM of liproxstatin-1 by MTT assay; format: functional
[27] = biological target: T1, Phospholipid hydroperoxide glutathione peroxidase GPX4 (Homo sapiens); assay: (§3) Induction of GPX4 degradation in human Gefitinib-resistant H1650 cells incubated for 24 hrs by Western blot analysis; format: cell-based; settings: Gefitinib-resistant H1650 cell, dose 10-1000 nM
[28] = biological target: T2, Phospholipid hydroperoxide glutathione peroxidase GPX4; assay: as §3; format: cell-based, Gefitinib-resistant H1650 cell
[29] = tested on: HT-1080; assay: Induction of ferroptosis in human HT-1080 cells assessed as increase in cell survival at 0.1 uM incubated for 24 hrs in presence of 0.185 uM of liproxstatin-1 by MTT assay; format: functional
[30] = biological target: T1, Phospholipid hydroperoxide glutathione peroxidase GPX4 (Homo sapiens); assay: Induction of GPX4 degradation in human HT-1080 cells at 0.1 uM incubated for 6 hrs in presence of […] by Western blot analysis; format: cell-based
[31] = tested on: HT-1080; assay: Induction of ROS production in human HT-1080 cells assessed as increase in ROS positive cells at 0.1 uM incubated for 4 hrs by C11-BODIPY581/891 staining based flow cytometry analysis; format: functional, cell-based
[32] = biological target: T1, Phospholipid hydroperoxide glutathione peroxidase GPX4 (Homo sapiens); assay: Induction of GPX4 degradation in human HT-1080 cells at 0.1 uM measured for 24 hrs by Western blot analysis; format: cell-based
[33] = biological target: T1, Phospholipid hydroperoxide glutathione peroxidase GPX4 (Homo sapiens); assay: (§4) Induction of GPX4 degradation in human Calu-1 cells measured for 24 hrs by Western blot analysis; format: cell-based; settings: dose 0.1-10000 nM
[34] = biological target: T2, Phospholipid hydroperoxide glutathione peroxidase GPX4; assay: as §4; format: cell-based
[35] = tested on: HT-1080; assay: Antiproliferative activity against human HT-1080 cells assessed as inhibition of cell growth incubated for 24 hrs by MTT assay; format: functional, cell-based; settings: HT-1080, 24 h
[36] = biological target: T1, Phospholipid hydroperoxide glutathione peroxidase GPX4 (Homo sapiens); assay: Induction of GPX4 degradation in human HT-1080 cells at 0.1 uM pretreated for 2 hrs followed by V5 addition and measured after 6 hrs by Western blot analysis; format: cell-based; settings: time 8.0 hrs
[37] = tested on: HT-1080; assay: Induction of ferroptosis in human HT-1080 cells assessed as increase in cell survival at 0.1 uM incubated for 24 hrs in presence of 5 uM of liproxstatin-1 by MTT assay; format: functional

Work on `Cc1onc(C(=O)N2CCN(C(c3ccc(Cl)cc3)c3ccc(Cl)cc3)CC2)c1[N+](=O)[O-]` yielded an IC50 [1] of 630 nM.
With `COC(=O)[C@H]1Cc2c([nH]c3ccccc23)[C@H](c2ccc(C(=O)N3CCN(CCCCCCCCCCCN[C@H](C(=O)N4C[C@H](O)C[C@H]4C(=O)N[C@@H](C)c4ccc(-c5scnc5C)cc4)C(C)(C)C)CC3)cc2)N1C(=O)CCl` the Activity [2] was 52%.
Compound `COC(=O)[C@H]1Cc2c([nH]c3ccccc23)[C@H](c2ccc(C(=O)N3CCN(CCCCCCCCCCCCN[C@H](C(=O)N4C[C@H](O)C[C@H]4C(=O)N[C@@H](C)c4ccc(-c5scnc5C)cc4)C(C)(C)C)CC3)cc2)N1C(=O)CCl` has an Activity [2] of 60%.
With `COC(=O)[C@H]1Cc2c([nH]c3ccccc23)[C@H](c2ccc(C(=O)N3CCN(CCCCCCCCCCCCCN[C@H](C(=O)N4C[C@H](O)C[C@H]4C(=O)N[C@@H](C)c4ccc(-c5scnc5C)cc4)C(C)(C)C)CC3)cc2)N1C(=O)CCl` the Activity [3] was “Active”, the Activity [4] was 100% and the Activity [5] was 91.5%. For the same compound, the Activity [6] was “Active”, the Activity [7] was “Dose-Dependent Effect” and the EC50 [8] was 23.3 nM. The Activity [9] was “Active”, the IC50 [10] was 2100 nM and the IC50 [1] was 25 nM. The Activity [11] was 74.8%, the Activity [12] was 82.7% and the Activity [13] was “inactive”. For the same compound, the Activity [14] was “inactive”, the Activity [15] was “Active” and the Activity [16] was “inactive”. The IC50 [17] was 1560 nM, the Activity [18] was “Dose-Dependent Effect” and the EC50 [19] was 42.7 nM. For the same compound, the Activity [20] was 100%, the Activity [21] was “Non-Toxic” and the Activity [22] was “Active”. It also gave an Activity [2] of 63%, an Activity [23] of 82.7% and an Activity [24] of 100%. For the same compound, the Activity [25] was “inactive”, the Activity [26] was 88.5% and the Activity [27] was “Dose-Dependent Effect”. The EC50 [28] was 25.6 nM, the Activity [29] was 92.5% and the Activity [30] was “inactive”. The Activity [31] was “Active”, the Activity [32] was “Active” and the Activity [33] was “Dose-Dependent Effect”. For the same compound, the EC50 [34] was 136 nM, the IC50 [35] was 58 nM and the Activity [36] was “inactive”. The Activity [37] was 92.1%.
Work on `COC(=O)[C@H]1Cc2c([nH]c3ccccc23)[C@H](c2ccc(C(=O)N3CCN(CCCCCCCCCN[C@H](C(=O)N4C[C@H](O)C[C@H]4C(=O)N[C@@H](C)c4ccc(-c5scnc5C)cc4)C(C)(C)C)CC3)cc2)N1C(=O)CCl` yielded an Activity [2] of 39%.
In the case of `COC(=O)[C@H]1Cc2c([nH]c3ccccc23)[C@H](c2ccc(C(=O)N3CCN(CCCCCCCN[C@H](C(=O)N4C[C@H](O)C[C@H]4C(=O)N[C@@H](C)c4ccc(-c5scnc5C)cc4)C(C)(C)C)CC3)cc2)N1C(=O)CCl`, the Activity [2] is reported as 36%.
Compound `COC(=O)[C@H]1Cc2c([nH]c3ccccc23)[C@H](c2ccc(C(=O)N3CCN(CCCCCCCCCCCCCCN[C@H](C(=O)N4C[C@H](O)C[C@H]4C(=O)N[C@@H](C)c4ccc(-c5scnc5C)cc4)C(C)(C)C)CC3)cc2)N1C(=O)CCl` has an Activity [2] of 55%.
With `COC(=O)c1ccc([C@H]2c3[nH]c4ccccc4c3C[C@H](C(=O)OC)N2C(=O)CCl)cc1` the Activity [6] was “inactive”, the Activity [9] was “Active” and the IC50 [10] was 7750 nM. The IC50 [1] was 50 nM, the Activity [13] was “inactive” and the IC50 [17] was 5520 nM. For the same compound, the Activity [30] was “inactive” and the IC50 [35] was 130 nM.
